Measurements from patent publication US20080194611A1, “Modulation of Cell Barrier Dysfunction” (priority 2005, published 2008).

What was measured:
[1] = test system: pyocyanin (PCN) production in P. aeruginosa; assay type: cell-based, Pseudomonas aeruginosa
P. aeruginosa = assay type: cell-based, Pseudomonas aeruginosa
[2] = test system: PA-I lectin/adhesin expression in P. aeruginosa PA27853 and PAO1
[3] = test system: Human pulmonary microvascular endothelial cell; assay type: cell-based
S1P3 receptor = assay: Tyrosine phosphorylation (transactivation) of the S1P3 receptor; assay type: cell-based, Human
[4] = test system: total endothelial cell tyrosine phosphatase activity; assay: Total cellular tyrosine phosphatase activity assay; assay type: cell-based, Human
[5] = molecular target: T1, receptor tyrosine phosphatase mu (RPTPμ) (Homo sapiens, UniProt P28827); assay: RPTPμ tyrosine phosphatase activity assay; assay type: biochemical; settings: treatment of HPMVEC
T1 construct: Treated or untreated HPAEC lysates and/or immunoprecipitated RPTPμ were analyzed for tyrosine phosphatase activity; host or cells: human pulmonary endothelial cells (HPMVEC, 'HPAEC')
T1 sequence (P28827 21-1452): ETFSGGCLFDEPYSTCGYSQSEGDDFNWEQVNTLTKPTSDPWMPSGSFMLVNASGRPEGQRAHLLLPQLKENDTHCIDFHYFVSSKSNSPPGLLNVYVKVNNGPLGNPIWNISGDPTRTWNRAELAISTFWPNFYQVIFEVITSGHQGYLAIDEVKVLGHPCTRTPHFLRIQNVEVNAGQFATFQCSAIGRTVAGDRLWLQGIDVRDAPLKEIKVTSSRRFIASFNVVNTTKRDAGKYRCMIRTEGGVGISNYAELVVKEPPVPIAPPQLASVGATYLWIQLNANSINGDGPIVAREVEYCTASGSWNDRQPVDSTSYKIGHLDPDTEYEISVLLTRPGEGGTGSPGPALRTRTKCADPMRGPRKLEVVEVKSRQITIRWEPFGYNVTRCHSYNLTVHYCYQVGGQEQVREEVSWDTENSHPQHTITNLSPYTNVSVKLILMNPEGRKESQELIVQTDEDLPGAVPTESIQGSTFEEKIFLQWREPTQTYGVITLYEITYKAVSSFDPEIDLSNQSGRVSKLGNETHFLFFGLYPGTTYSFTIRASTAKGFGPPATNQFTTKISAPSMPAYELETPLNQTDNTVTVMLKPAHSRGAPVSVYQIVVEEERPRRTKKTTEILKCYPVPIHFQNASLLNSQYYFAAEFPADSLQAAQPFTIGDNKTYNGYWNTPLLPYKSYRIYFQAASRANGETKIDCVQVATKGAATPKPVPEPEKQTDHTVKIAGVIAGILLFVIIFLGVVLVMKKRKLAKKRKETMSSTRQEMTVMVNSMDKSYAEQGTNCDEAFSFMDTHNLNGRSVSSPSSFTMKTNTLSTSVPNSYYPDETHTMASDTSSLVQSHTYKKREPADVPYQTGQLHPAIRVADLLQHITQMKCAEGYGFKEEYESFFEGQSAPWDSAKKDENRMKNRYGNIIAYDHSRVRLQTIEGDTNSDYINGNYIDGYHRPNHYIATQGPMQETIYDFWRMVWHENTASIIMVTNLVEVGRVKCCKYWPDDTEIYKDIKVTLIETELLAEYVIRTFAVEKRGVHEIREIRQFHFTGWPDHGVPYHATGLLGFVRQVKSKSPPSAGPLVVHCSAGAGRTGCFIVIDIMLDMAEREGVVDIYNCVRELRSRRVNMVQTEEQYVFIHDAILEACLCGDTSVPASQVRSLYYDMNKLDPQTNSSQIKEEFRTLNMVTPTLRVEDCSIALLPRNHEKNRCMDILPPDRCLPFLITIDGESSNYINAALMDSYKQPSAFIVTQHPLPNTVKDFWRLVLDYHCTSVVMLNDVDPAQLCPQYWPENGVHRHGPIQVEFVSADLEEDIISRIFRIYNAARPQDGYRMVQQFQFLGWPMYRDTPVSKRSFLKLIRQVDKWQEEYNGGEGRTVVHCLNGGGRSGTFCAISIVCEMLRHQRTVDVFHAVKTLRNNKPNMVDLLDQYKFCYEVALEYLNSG

[6] = test system: PA-I lectin/adhesin expression in P. aeruginosa 27853/PLL-EGFP
[7] = methadone maintenance patients; mean dose 0.1 mg/kg intravenously; cited from earlier work
[8] = in vivo; cited from earlier work
[9] = cited from earlier work
P. aeruginosa PA27853 = assay type: in vivo, mice; settings: slow release morphine pellets; daily 1×10^8 cfu/ml PA27853
[10] = test system: membrane protein fractions of P. aeruginosa; assay: Binding of morphine to P. aeruginosa membrane protein; parameters: species or system Pseudomonas aeruginosa
[11] = intravenously applied; cited from earlier work

CCCC(=O)N[C@H]1CCOC1=O [C4-HSL, C4-homoserine lactone]
PCN production in seven additional mvfR mutants [1]: none of these mutants produced PCN
PCN production in ΔGacA and ΔMvfR [1]: unable to restore PCN production
PCN production in ΔGacA/gacA [1]: decreased, albeit minimally
PCN production in ΔMvfR/mvfR [1]: further increased the already elevated PCN production
PCN production versus cell density [1]: shift in the production of PCN at lower cell densities
PCN response of MvfR mutant 121-332 [1]: did not respond to U-50,488 or C4-HSL
PCN response of MvfR mutants 1-292, 1-291, 1-283 [1]: did not respond to U-50,488 and C4-HSL
PCN response of MvfR mutants 1-299 and 1-293 [1]: responded to U-50,488 and C4-HSL with enhanced PCN production
dynamic tracking of PCN production in ΔMvfR/mvfR [1]: demonstrated a shift in PCN production at lower cell densities
dynamics of PCN production in ΔGacA/gacA [1]: had no effect on the dynamics of PCN production
effect on bacterial growth (P. aeruginosa): Neither compound had an effect on bacterial growth
PA-I expression [2]: induced PA-I expression
increase in PA-I expression [2]: ~16 fold

C[N+]1(CC2CC2)CCC23c4c5ccc(O)c4OC2C(=O)CCC3(O)C1C5 (centres unmarked) [MNTX, N-methylnaltrexone]
MNTX protection from thrombin- and LPS-induced disruption with mOP-R silenced (siRNA) [3]: little effect
MNTX protection with RPTPμ silenced (siRNA) [3]: inhibited the protective effects of MNTX
MNTX protection with S1P3 receptor silenced (siRNA) [3]: inhibited
dose dependence of barrier protective effects [3]: Decreasing the dose of MNTX below 0.1 μM attenuated its barrier protective effects
effect on LPS-induced endothelial cell barrier disruption [3]: attenuated endothelial cell barrier disruption
effect on MS- and DAMGO-induced endothelial cell barrier disruption [3]: blocked
effect on S1P barrier enhancement [3]: increased the sustained endothelial cell barrier-enhancing effect
effect on ionomycin-induced endothelial cell barrier disruption [3]: but not from the Ca^2+ ionophore, ionomycin
effect on thrombin-induced endothelial cell barrier disruption [3]: attenuated endothelial cell barrier disruption
Src tyrosine phosphorylation of isolated S1P3 receptor, in vitro (S1P3 receptor; RPTPμ from MNTX-treated (1 hour) endothelial cells): blocked Src tyrosine phosphorylation of the S1P3 receptor
effect on agonist-induced S1P3 receptor transactivation (S1P3 receptor; pre-treatment): completely blocked
total endothelial cell tyrosine phosphatase activity [4]: increased total endothelial cell tyrosine phosphatase activity
MNTX-mediated increase of total tyrosine phosphatase activity with RPTPμ silenced ([4]; siRNA): significantly attenuated
RPTPμ tyrosine phosphatase activity [5]: enhanced RPTPμ tyrosine phosphatase activity
effect on morphine-induced PA-I lectin/adhesin expression [6]: significantly attenuated
mean plasma levels [7]: 162 ng/mL
crossing of the blood-brain barrier [8]: does not cross the blood-brain barrier
lipid solubility / polarity [9]: greater polarity and lower lipid solubility

CN1CC[C@]23c4c5ccc(O)c4O[C@H]2[C@@H](O)C=C[C@H]3[C@H]1C5 [morphine]
mice developing severe sepsis (P. aeruginosa PA27853): 4/4
mortality (P. aeruginosa PA27853): significant mortality
effect of agonist alone on endothelial cell barrier function (TER) [3]: induced endothelial cell barrier disruption in a dose-dependent manner
binding to membrane protein fractions [10]: binds to membrane protein fractions
increase in PA-I expression [2]: four-fold
response to express PA-I [2]: induce a robust response
concentration accumulated at tissue sites such as the intestinal mucosa [11]: ≤ 100 µM
